Measured values from US20160168140A1, “HETEROCYCLIC COMPOUNDS AS ANTIBIOTIC POTENTIATORS” (priority 2014, published 2016).

How the values were obtained:
[1] = system: panel of Gram-negative bacteria with different colistin susceptibilities; test: Fractional inhibitory concentration index (FICI) checkerboard assay with colistin; assay type: cell-based; settings: for FICI Values of Colistin and Potentiator in Resistant Bacteria: FICI values of ≦0.5 indicate synergy
Method: The fractional inhibitory concentration index (FICI) was determined in combination with colistin using the broth microdilution susceptibility test method as described by the CLSI (Methods for Dilution Antimicrobial Susceptibility Tests for Bacteria That Grow Aerobically; Approved Standard-Ninth Edition. 2012. CLSI document M07-A9. CLIS, 940 West Valley Road, Suite 1400, Wayne, Pa. 19087-1898 USA). This checkerboard assay was set up with decreasing concentrations of colistin across the plate from left to right and decreasing concentrations of potentiator from top to bottom. The FICI values were then calculated using the methods of Lorian et al. (Antibiotics in Laboratory Medicine—Fifth Edition. 2005. Lippincott, Williams, & Wilkins, Philadelphia, Pa.). A panel of Gram-negative bacteria with different colistin susceptibilities were tested.
Each of the tested compounds synergized with colistin in the three species of colistin-resistant bacteria tested.

[2] = system: Acinetobacter baumannii (Ab23); test: MIC shift assay of antibiotics (broth microdilution); assay type: cell-based; settings: for Colistin MIC Shift: A. baumannii (MDR Ab), compd. concentration 4.0 μM, colistin MIC 0.5-1.0 μg/mL; for colistin MIC shift, Ab23 at (compd concentration): fold shift of colistin MIC, nc = no changeover or no shift
In short: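 Broth microdilution MIC shift assay against Acinetobacter baumannii. Overnight cultures in cation-adjusted Mueller Hinton broth at 37° C. were sub-cultured 1:200, grown to OD600=0.5 to 0.8, diluted to OD600=0.01, and added (50 μL) to wells holding 50 μL of 2× antibiotic stocks for a starting OD600 of 0.005. After 18 to 20 h at 37° C. with shaking, OD600 was read to obtain MICs.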

[3] = system: E. coli; test: as above; assay type: cell-based; settings: E. coli (SCR1); compd. concentration 4.0 μM; colistin MIC 0.5-1.0 μg/mL
Method: Minimum inhibitory concentration (MIC) shift assays were performed to determine if the test compounds could alter the MIC of existing antibacterial drugs (e.g., ciprofloxacin and colistin) for E. coli, Acinetobacter baumannii, Klebsiella pneumoniae, Pseudomonas aeruginosa, and Enterobacter cloacae. The MIC shift assay is based on the standard broth microdilution MIC determination protocol of Wiegand et al, Nat Protoc. 3(2):163-75 (2008), with slight modifications that allow for the screening of up to seven test compounds in a single plate.
On the day before an assay, bacteria were grown overnight in cation-adjusted Mueller Hinton broth (CAMHB; Teknova, Hollister, Calif.) at 37° C. in an orbital shaker and sub-cultured at a 1:200 dilution the following morning. The cells were grown to OD600=0.5 to 0.8 and then diluted to OD600=0.01. From a serial dilution of each antibiotic at (50 μL of 2× concentrated stock solutions) several concentrations were added to the wells of a sterile, transparent round-bottom 96-well plate (Phenix Research Products, Candler, N.C.), and diluted cells (50 μL) were added to the plates for a starting OD600 of 0.005. Then, a test compound (2.5 μL) was added to each well to give a final concentration of 4 or 10 μM. A row of wells lacking test compound but containing the antibiotic was used to determine the MIC of that antibiotic alone. A column of wells lacking both antibiotic and test compound served as a growth control, and an additional column containing only CAMHB was included as a sterile blank control.
The plates were incubated for 18 to 20 h at 37° C. in an orbital shaker, and the cell density (OD600) was determined the following day in a microplate reader (PolarStar Optima, BMG Labtech). The MIC shift was determined by comparing the MIC of the antibiotic alone to the MIC of the antibiotic plus test compound.

[4] = system: Ab23; test: Time-kill assay with colistin and potentiator; assay type: cell-based, Acinetobacter baumannii; parameters: time-kill: concentration of potentiator required for effect: unit not given here; settings: for time-kill: effect on Ab23 cells in the absence of colistin: compound alone (compound III at 10 μM), FIGS. 2-4; for time-kill: effect in the presence of colistin: compound plus colistin, Ab23, FIGS. 2-4
Method: Colistin and potentiator were diluted to 1000× final concentrations in water and DMSO, respectively. Then, 3 μl of the appropriate dilutions were added to culture tubes. An overnight culture of Ab23 was diluted to 10^6 CFU/ml, and 3 mL of cells were added to the tubes. The cultures were incubated at 37° C. in an orbital shaker. An aliquot of the starting inoculum was serially diluted in CAMHB and spread on LB agar plates for CFU determination. At 2, 4, 8, and 24 hours, aliquots were removed from each of the culture tubes, diluted, and spread LB agar plates. The plates were incubated overnight at 37° C. The following day, the number of CFUs on each plate was counted, and the number of bacterial in each culture condition was calculated. Colistin (“C”) was tested at 2 and 8 µg/mL. The select compounds (“P”) were tested at 2 and 10 µg/mL. The dotted line indicates the limit of detection.

[5] = colistin-resistant A. baumannii
[6] = colistin-resistant K. pneumoniae
[7] = colistin-resistant P. aeruginosa

Row | Compound | Colistin MIC Shift [2] [x] | colistin MIC shift, Ab23 at (compd concentration) ([2]; compound concentration 2 μM) | Colistin MIC Shift [3] [x] | colistin MIC shift, Ab23 at (compd concentration) ([2]; compound concentration 4 μM) [x] | further results
1 | CN(C)CCCNc1nc(-c2cccc(-c3cc(C(F)(F)F)ccc3F)c2)nc2c(C(F)(F)F)cccc12 [IV] | – | – | – | – | MIC Shift of Colistin and Potentiator in Resistant Bacteria [1, 5]: 133 x; FICI Values of Colistin and Potentiator in Resistant Bacteria [1, 5]: 0.24; MIC Shift of Colistin and Potentiator in Resistant Bacteria [1, 6]: 512 x; FICI Values of Colistin and Potentiator in Resistant Bacteria [1, 6]: 0.21; MIC Shift of Colistin and Potentiator in Resistant Bacteria [1, 7]: 33 x; FICI Values of Colistin and Potentiator in Resistant Bacteria [1, 7]: 0.27
2 | CN(C)CCCNc1nc(-c2cc(Br)cc(C(F)(F)F)c2)nc2c(Cl)cccc12 [compound 337] | 4 | 8-16x | 4 | – | –
3 | CN(C)CCCNc1nc(-c2cc(Br)cc(C(F)(F)F)c2)nc2c(Br)cccc12 [compound 338] | 4 | 8-16x | 4 | – | –
4 | Cc1cccc2c(NCCCN(C)C)nc(-c3cc(C(F)(F)F)cc(C(F)(F)F)c3)nc12 [compound 339] | 8 | 8-16x | 8 | – | –
5 | CNCCCN(C)c1nc(-c2cc(Br)cc(C(F)(F)F)c2)nc2c(C)cccc12 [compound 342] | 8 | 8-16x | 8 | – | –
6 | Cc1cccc2c(NCCN(C)C)nc(-c3cc(Br)cc(C(F)(F)F)c3)nc12 [compound 345] | 4 | 8-16x | 16 | – | –
7 | Cc1cccc2c(NCCCN3CCNCC3)nc(-c3cc(Br)cc(C(F)(F)F)c3)nc12 [compound 348] | 8 | 8-16x | 16 | – | –
8 | Cc1cccc2c(NCCCN(C)C)nc(-c3cc(Br)cc(C(F)(F)F)c3)nc12 [compound 353] | 8 | 8-16x | 8 | – | –
9 | NCC(=O)n1cc(-c2ccc(Cl)c(Cl)c2)c2cc(Cl)ccc21 [compound 360] | 4 | 16x | 4 | – | –
10 | CC(N)C(=O)n1cc(-c2ccc(Cl)c(Cl)c2)c2cc(Cl)ccc21 (stereo not shown) [compound 361] | 4 | 16x | 4 | – | –
11 | CNCCCN(C)c1nc(-c2cccc(-c3cc(C(F)(F)F)ccc3F)c2)nc2c(C)cccc12 [compound 487] | 8 | – | 16 | 32 | –
12 | CCN(CC)CCCC(C)Nc1nc(-c2cc(-c3ccccc3)cc(C(F)(F)F)c2)nc2c(C)cccc12 (stereo not shown) [compound 492] | 8 | – | 8 | 32 | –
13 | CN(C)CCCNc1nc(-c2cc(Br)cc(C(F)(F)F)c2)nc2c(C(F)(F)F)cccc12 [compound 505] | 4 | – | 8 | 32 | –
14 | Cc1cccc2c(NCCCN(C)C)nc(-c3cc(Cl)cc(C(F)(F)F)c3)nc12 [compound 506] | 4 | – | 8 | 16 | –
15 | CN(C)CCCNc1nc(-c2cn(Cc3ccccc3)c3c(Cl)cccc23)nc2cc(Cl)ccc12 [compound 585] | – | – | – | 8 | –
16 | Cc1cccc2c(NCCCN(C)C)nc(-c3cn(Cc4ccccc4)c4cc(Cl)ccc34)nc12 [compound 586] | – | – | – | 16 | –
17 | Cc1cccc2c(NCCCN(C)C)nc(-c3cn(Cc4ccccc4)c4ccc(Cl)cc34)nc12 [compound 587] | – | – | – | – | colistin MIC shift, Ab23 at (compd concentration) ([2]; compound concentration 10 μM): 16x
18 | CN(C)CCCNc1nc(-c2csc3ccc(Cl)cc23)nc2c(Cl)cccc12 [compound 592] | – | – | – | 32 | –
19 | CN(C)CCCNc1nc(/C=C/c2ccc(Cl)c(Cl)c2)nc2c(C(F)(F)F)cccc12 [compound III] | – | – | – | – | time-kill: effect on Ab23 cells in the absence of colistin [4]: reduced Ab23 in two hours, although the effect was not sustained; time-kill: effect in the presence of colistin [4]: potent synergists of colistin; MIC Shift of Colistin and Potentiator in Resistant Bacteria [1, 5]: 133 x; FICI Values of Colistin and Potentiator in Resistant Bacteria [1, 5]: 0.21; MIC Shift of Colistin and Potentiator in Resistant Bacteria [1, 6]: 533 x; FICI Values of Colistin and Potentiator in Resistant Bacteria [1, 6]: 0.17; MIC Shift of Colistin and Potentiator in Resistant Bacteria [1, 7]: 33 x; FICI Values of Colistin and Potentiator in Resistant Bacteria [1, 7]: 0.19
20 | FC(F)(F)c1ccc2c(-c3ccc(Cl)c(Cl)c3)n[nH]c2c1 [compound II] | – | – | – | – | time-kill: effect on Ab23 cells in the absence of colistin [4]: had no effect on the cells; time-kill: effect in the presence of colistin [4]: potent synergists of colistin; MIC Shift of Colistin and Potentiator in Resistant Bacteria [1, 5]: 267 x; FICI Values of Colistin and Potentiator in Resistant Bacteria [1, 5]: 0.15; MIC Shift of Colistin and Potentiator in Resistant Bacteria [1, 6]: 32 x; FICI Values of Colistin and Potentiator in Resistant Bacteria [1, 6]: 0.39; MIC Shift of Colistin and Potentiator in Resistant Bacteria [1, 7]: 16 x; FICI Values of Colistin and Potentiator in Resistant Bacteria [1, 7]: 0.26
21 | Clc1ccc(/C=C/c2c[nH]c3ccc(Br)cc23)cc1Cl [compound I] | – | – | – | – | time-kill: effect on Ab23 cells in the absence of colistin [4]: had no effect on the cells; time-kill: effect in the presence of colistin [4]: potent synergists of colistin; time-kill: concentration of potentiator required for effect ([4]; in combination with colistin, Ab23, FIG. 2): 2; MIC Shift of Colistin and Potentiator in Resistant Bacteria [1, 5]: 133 x; FICI Values of Colistin and Potentiator in Resistant Bacteria [1, 5]: 0.25; MIC Shift of Colistin and Potentiator in Resistant Bacteria [1, 6]: 64 x; FICI Values of Colistin and Potentiator in Resistant Bacteria [1, 6]: 0.30; MIC Shift of Colistin and Potentiator in Resistant Bacteria [1, 7]: 16 x; FICI Values of Colistin and Potentiator in Resistant Bacteria [1, 7]: 0.26
22 | (S)-2-amino-1-(5-chloro-3-(3,4-dichlorophenyl)-1H-indol-1-yl)butan-1-one methanesulfonate salt [compound 460] | – | – | – | 32 | –
23 | E-1-(5-bromo-3-(3,4-dichlorostyryl)-1H-indol-1-yl)-2-(dimethylamino)ethan-1-one [compound 457] | – | – | – | 16 | –
